Targets include EmbC^CT(W985A) (Mycobacterium tuberculosis, UniProt P9WNL5, W985A); EmbC^CT(W868A) (Mycobacterium tuberculosis, UniProt P9WNL5, W868A); EmbC^CT(N740A) (Mycobacterium tuberculosis, UniProt P9WNL5, N740A); EmbC^CT(H911A) (Mycobacterium tuberculosis, UniProt P9WNL5, H911A).
What all share (format): binding

This is an account of results in publication PMC3044687, “The C-Terminal Domain of the Arabinosyltransferase Mycobacterium tuberculosis EmbC Is a Lectin-Like Carbohydrate Binding Module” (PLoS Pathogens, 2011).

For the compound `CCCCCCCCO[C@H]1O[C@H](CO[C@H]2O[C@H](CO[C@H]3O[C@H](CO[C@H]4O[C@H](CO[C@H]5O[C@H](CO)[C@@H](O)[C@@H]5O)[C@@H](O)[C@@H]4O)[C@@H](O)[C@@H]3O)[C@@H](O)[C@@H]2O)[C@@H](O)[C@@H]1O` [Ara(1→5)4Ara-O-C8, [α-D-Araf-(1→5)]4-α-D-Araf-O-(CH2)7CH3], at EmbC^CT(W985A), the Fmax worked out at 0.164 and the “effect of W985A mutation on ligand binding (in words)” value is “insensitive”. Further, the “effect of W868A mutation on ligand binding (in words)” value at EmbC^CT(W868A) is “completely inhibited”.
`CCCCCCCCO[C@H]1O[C@H](CO[C@H]2O[C@H](CO)[C@@H](O)[C@@H]2O)[C@@H](O)[C@@H]1O` [Ara(1→5)Ara-O-C8, α-D-Araf-(1→5)-α-D-Araf-O-(CH2)7CH3]: the results for the Fmax on EmbC^CT(N740A), at EmbC^CT(H911A) and at EmbC^CT(W868A) were 0.141, 0.170 and 0.162, respectively. For the same compound, the “effect of W985A mutation on ligand binding (in words)” value on EmbC^CT(W985A) was “virtually abrogated binding”. The “effect of W868A mutation on ligand binding (in words)” value on EmbC^CT(W868A) is listed as “preserved binding”.
